Measurements: paper PMC7450057, “Enhancing intracellular accumulation and target engagement of PROTACs with reversible covalent chemistry” (Nature Communications, 2020)
Values joined by “and” are separate entries in the source; they are usually repeats but may differ in a detail not shown here. Identical values can stand only once. “Also recorded” adds a separate entry of the source.

Columns and labels:
MOLM-14 cells [1] = assay: Quantitative multiplexed (TMT) proteomics of compound-treated cells; assay type: cell-based, Homo sapiens; conditions: 200 nM, 24 h
Method: For proteomic study of the cellular protein profile following BTK degradation, MOLM-14 cells were treated in duplicate with 200 nM of RC-1, RNC-1, IRC-1, or RC-1-Me for 24 h, and then the cells were collected and processed for proteomics analysis (Sanford Burnham Prebys Medical Discovery Institute, La Jolla, California).
For cell lysis and protein digestion, cells were lysed with vigorous shaking (20 Hz for 10 min at room temperature by Retsch MM301 instrument) in 0.5 mL of lysis buffer (8 M urea, 50 mM ammonium bicarbonate (ABC); plus Benzonase 24U/100 ml), and extracted proteins were centrifuged at 14,000 × g for 10 min to remove cellular debris. Supernatant protein concentration was determined using a bicinchoninic acid (BCA) protein assay. Following quantification, the proteins were digested in solution. First, protein disulfide bonds were reduced with 5 mM tris(2-carboxyethyl)phosphine (TCEP) at 30 °C for 60 min, alkylated (carbamidomethylated) with 15 mM iodoacetamide (IAA) in the dark at room temperature for 30 min. Urea was then diluted to 1 M urea using 50 mM ammonium bicarbonate, and proteins were subjected to overnight digestion with mass spec grade Trypsin/Lys-C mix. Following digestion, samples were acidified with formic acid (FA) and subsequently desalted using Waters Sep-Pak C18. Cartridges were sequentially conditioned with 100% acetonitrile (ACN) and 0.1% FA, samples were then loaded, washed with 0.1% FA, and peptides eluted with 60% ACN, 0.1% FA. Finally, the organic solvent was removed in a SpeedVac concentrator prior to LC-MS/MS analysis.
Prior to TMT labeling, sample peptide amount was quantified using a NanoDrop^TM spectrophotometer (ThermoFisher). Samples were labeled according to the table schematic shown below using our TMT protocol. Briefly, a normalized amount of peptides sample was resuspended in 200 mM HEPES pH 8, and then labeled with one of the TMT10-plex reagents for 1 h at room temperature. TMT labels/channels were as follows:
Reactions were quenched with 5% hydroxylamine solution. The 10 samples were then combined, dried down in a SpeedVac system, resuspended in 0.1% FA, and desalted as described above. After desalting, the organic solvent was removed in a SpeedVac concentrator.
Dried samples were reconstituted in 20 mM ammonium formate pH ~10, and fractionated by high pH reverse phase using a Waters Acquity CSH C18 2.1-µm 1 × 150 mm column mounted on an M-Class Ultra Performance Liquid Chromatography (UPLC) system (Waters corp., Milford, MA). […] A total of 36 fractions were collected and pooled in a non-contiguous manner into 18 total fractions: 1 + 19, 2 + 20, 3 + 21, 4 + 22, 5 + 23, 6 + 24, 7 + 25, 8 + 26, 9 + 27, 10 + 28, 11 + 29, 12 + 30, 13 + 31, 14 + 32, 15 + 33, 16 + 34, 17 + 35, and 18 + 36. Pooled fractions were dried to completeness in a SpeedVac concentrator.
Dried fractions were reconstituted with 2% ACN-0.1% FA and analyzed by LC-MS/MS using a nanoACQUITY system (Waters) coupled to an Orbitrap Fusion Lumos mass spectrometer (Thermo Fisher Scientific). […] The mass spectrometer was operated in positive data-dependent acquisition mode. MS1 spectra were measured in the Orbitrap with a resolution of 60,000 (AGC target: 4e5; maximum injection time: 50 ms; mass range: from 350 to 1500 m/z). The instrument was set to run in top speed mode with 3 s cycles for the survey and the MS/MS scans. After a survey scan, tandem MS was performed in the Ion Routing Multipole HCD-Cell on the most abundant precursors by isolating them in the quadrupole (Isolation window: 0.7 m/z; charge state: +2–7; collision energy: 35%). […] The dynamic exclusion was set to 20 s with a 10-ppm mass tolerance around the precursor and its isotopes.
For data analysis, all mass spectra were analyzed with MaxQuant software version 1.5.5.1. MS/MS spectra were searched against the Homo sapiens Uniprot protein sequence database (version January 2018) and GPM cRAP sequences (commonly known protein contaminants). […]

MOLM-14 cells [2] = assay: Quantification of intracellular drug concentration by LC-MS; assay type: in vitro ADME; conditions: for Intracellular concentration: Concentration of compound, AVE / intracellular amount, AVE / intracellular amount / Intracellular concentration: Concentration of compound: 200 nM; for Intracellular concentration: Concentration of compound, AVE / intracellular amount, AVE: average of 3 replicates; for intracellular amount: initial amount 0.4000 nmol; for Intracellular concentration: Concentration of compound: sample volume 400 µL
Method: MOLM-14 cells were seeded at a density of 0.5 × 10^6 per mL in 2 mL medium. […] The samples were immediately centrifuged at 12,000 × g for 15 min at 4 °C, then removing the supernatant. In all, 400 μL of NP-40 lysis buffer was added to the cell pellet and mixed thoroughly. The mixtures were rocked for 1 h at 4 °C and centrifuged at 12,000 × g for 15 min at 4 °C. Then the supernatant was transferred to new EP tubes. In total, 20 µL supernatant was extracted with 180 µL of acetonitrile (containing internal standard: 250 nM of RNC-Ctrl) and centrifuged at the same conditions described above. Take 75 μL of supernatant for liquid chromatography-mass spectrometry analysis.
The mass spectrometer was operated in positive SIM ion mode (fragmentor 120 V; cycle time 0.6 s/cycle; Agilent Technologies 6130 Quadrupole LC/MS).

CN1C(=O)CCC(N2C(=O)c3cccc(NCC(=O)NCCCN(C)C(C)(C)C=C(C#N)C(=O)N4CCCC(n5nc(-c6ccc(Oc7ccccc7)cc6)c6c(N)ncnc65)C4)c3C2=O)C1=O (stereo not shown) [RC-1-Me]
kinases degraded (proteomics) (MOLM-14 cells [1]): no degradation is observed

CN(CCCNC(=O)CNc1cccc2c1C(=O)N(C1CCC(=O)NC1=O)C2=O)C(C)(C)C=C(C#N)C(=O)N1CCC[C@@H](n2nc(-c3ccc(Oc4ccccc4)cc3)c3c(N)ncnc32)C1 (stereo partly shown) [RC-1]
Intracellular concentration: Concentration of compound, AVE (MOLM-14 cells [2]; 5 min): 0.1304 µM | intracellular amount, AVE (MOLM-14 cells [2]; 5 min): 0.0522 nmol | intracellular amount (MOLM-14 cells [2]; 5 min, single replicates): 0.0607 nmol and 0.0507 nmol and 0.0451 nmol | Intracellular concentration: Concentration of compound (MOLM-14 cells [2]; 5 min, single replicates): 0.1517 µM and 0.1267 µM and 0.1128 µM | Intracellular concentration: Concentration of compound, AVE (MOLM-14 cells [2]; 15 min): 0.1127 µM | intracellular amount, AVE (MOLM-14 cells [2]; 15 min): 0.0451 nmol | intracellular amount (MOLM-14 cells [2]; 15 min, single replicates): 0.0487 nmol and 0.0414 nmol and 0.0451 nmol | Intracellular concentration: Concentration of compound (MOLM-14 cells [2]; 15 min, single replicates): 0.1218 µM and 0.1035 µM and 0.1128 µM | Intracellular concentration: Concentration of compound, AVE (MOLM-14 cells [2]; 30 min): 0.1159 µM | intracellular amount, AVE (MOLM-14 cells [2]; 30 min): 0.0464 nmol | intracellular amount (MOLM-14 cells [2]; 30 min, single replicates): 0.0474 nmol and 0.0471 nmol and 0.0447 nmol | Intracellular concentration: Concentration of compound (MOLM-14 cells [2]; 30 min, single replicates): 0.1184 µM and 0.1177 µM and 0.1117 µM | Intracellular concentration: Concentration of compound, AVE (MOLM-14 cells [2]; 60 min): 0.1117 µM | intracellular amount, AVE (MOLM-14 cells [2]; 60 min): 0.0447 nmol | intracellular amount (MOLM-14 cells [2]; 60 min, single replicates): 0.0471 nmol and 0.0390 nmol and 0.0480 nmol | Intracellular concentration: Concentration of compound (MOLM-14 cells [2]; 60 min, single replicates): 0.1177 µM and 0.0975 µM and 0.1199 µM | Intracellular concentration: Concentration of compound, AVE (MOLM-14 cells [2]; 90 min): 0.1080 µM | intracellular amount, AVE (MOLM-14 cells [2]; 90 min): 0.0432 nmol | intracellular amount (MOLM-14 cells [2]; 90 min, single replicates): 0.0436 nmol and 0.0454 nmol and 0.0405 nmol | Intracellular concentration: Concentration of compound (MOLM-14 cells [2]; 90 min, single replicates): 0.1091 µM and 0.1136 µM and 0.1013 µM | Intracellular concentration: Concentration of compound, AVE (MOLM-14 cells [2]; 120 min): 0.1194 µM | intracellular amount, AVE (MOLM-14 cells [2]; 120 min): 0.0478 nmol | intracellular amount (MOLM-14 cells [2]; 120 min, single replicates): 0.0460 nmol and 0.0513 nmol | Intracellular concentration: Concentration of compound (MOLM-14 cells [2]; 120 min, single replicates): 0.1151 µM and 0.1282 µM | Intracellular concentration: Concentration of compound, AVE (MOLM-14 cells [2]; 240 min): 0.1060 µM | intracellular amount, AVE (MOLM-14 cells [2]; 240 min): 0.0424 nmol | intracellular amount (MOLM-14 cells [2]; 240 min, single replicates): 0.0426 nmol and 0.0421 nmol and 0.0424 nmol | Intracellular concentration: Concentration of compound (MOLM-14 cells [2]; 240 min, single replicates): 0.1065 µM and 0.1054 µM and 0.1061 µM | Cellular concentration (MOLM-14 cells [2]; 5 min, Mean): 0.0522 nmol/million cells | Cellular concentration (MOLM-14 cells [2]; 5 min, single replicates, MOLM-14, 200 nM): 0.0607 nmol/million cells and 0.0507 nmol/million cells and 0.0451 nmol/million cells | Cellular concentration (MOLM-14 cells [2]; 15 min, Mean): 0.0451 nmol/million cells | Cellular concentration (MOLM-14 cells [2]; 15 min, single replicates, MOLM-14, 200 nM): 0.0487 nmol/million cells and 0.0414 nmol/million cells and 0.0451 nmol/million cells | Cellular concentration (MOLM-14 cells [2]; 30 min, Mean): 0.0464 nmol/million cells | Cellular concentration (MOLM-14 cells [2]; 30 min, single replicates, MOLM-14, 200 nM): 0.0474 nmol/million cells and 0.0471 nmol/million cells and 0.0447 nmol/million cells | Cellular concentration (MOLM-14 cells [2]; 60 min, Mean): 0.0447 nmol/million cells | Cellular concentration (MOLM-14 cells [2]; 60 min, single replicates, MOLM-14, 200 nM): 0.0390 nmol/million cells and 0.0480 nmol/million cells and 0.0471 nmol/million cells and 0.039 nmol/million cells and 0.048 nmol/million cells | Cellular concentration (MOLM-14 cells [2]; 90 min, Mean): 0.0432 nmol/million cells | Cellular concentration (MOLM-14 cells [2]; 90 min, single replicates, MOLM-14, 200 nM): 0.0436 nmol/million cells and 0.0454 nmol/million cells and 0.0405 nmol/million cells | Cellular concentration (MOLM-14 cells [2]; 120 min, Mean): 0.0478 nmol/million cells | Cellular concentration (MOLM-14 cells [2]; 120 min, single replicates, MOLM-14, 200 nM): 0.0460 nmol/million cells and 0.046 nmol/million cells and 0.0513 nmol/million cells | Cellular concentration (MOLM-14 cells [2]; 240 min, Mean): 0.0424 nmol/million cells | Cellular concentration (MOLM-14 cells [2]; 240 min, single replicates, MOLM-14, 200 nM): 0.0426 nmol/million cells and 0.0421 nmol/million cells and 0.0424 nmol/million cells | intracellular concentration of RC-1 relative to RNC-1 and IRC-1 (MOLM-14 cells [2]; LC-MS of cell lysates): ~ 2 fold | degradation of IMiD-dependent substrates IKZF1, ZFP91, ZNF692 (MOLM-14 cells [1]): specifically degraded | kinases degraded (proteomics) (MOLM-14 cells [1]): only two kinases (BTK and CSK) can be degraded; also recorded: only degrades BTK and CSK
